Results taken from publication PMC6704710, “Preclinical evaluation of 3D185, a novel potent inhibitor of FGFR1/2/3 and CSF-1R, in FGFR-dependent and macrophage-dominant cancer models” (Journal of Experimental & Clinical Cancer Research : CR, 2019).

Tests used:
Experiment in all cases: Eurofins kinase panel
Type in all cases: biochemical
Conditions in all cases: read-out: Inhibition rate (%)
DCAMKL3(h) = molecular target: T1, DCAMKL3(h) (Homo sapiens, UniProt Q9C098)
T1 construct: purchased Eurofins (KinaseProfiler)
T1 sequence (Q9C098 1-648): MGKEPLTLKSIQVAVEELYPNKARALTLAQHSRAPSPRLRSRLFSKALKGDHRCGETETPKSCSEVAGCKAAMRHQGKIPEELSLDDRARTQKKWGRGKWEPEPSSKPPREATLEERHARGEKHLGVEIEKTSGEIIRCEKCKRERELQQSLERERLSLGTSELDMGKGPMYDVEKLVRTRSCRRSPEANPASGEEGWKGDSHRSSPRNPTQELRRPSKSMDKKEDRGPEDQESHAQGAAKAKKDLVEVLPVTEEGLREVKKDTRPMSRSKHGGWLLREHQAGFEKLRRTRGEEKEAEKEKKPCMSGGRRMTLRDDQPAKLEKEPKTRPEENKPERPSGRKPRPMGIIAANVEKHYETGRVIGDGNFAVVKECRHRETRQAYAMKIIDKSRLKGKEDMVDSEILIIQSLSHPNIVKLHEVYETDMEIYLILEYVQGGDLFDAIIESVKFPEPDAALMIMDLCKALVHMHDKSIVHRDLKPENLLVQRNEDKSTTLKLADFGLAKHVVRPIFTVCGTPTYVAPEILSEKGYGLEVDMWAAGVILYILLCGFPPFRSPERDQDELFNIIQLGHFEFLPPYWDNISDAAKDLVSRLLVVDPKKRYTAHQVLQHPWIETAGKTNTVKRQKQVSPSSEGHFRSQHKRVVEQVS

Haspin(h) = molecular target: T2, Haspin(h) (Homo sapiens, UniProt Q8TF76)
T2 construct: purchased Eurofins (KinaseProfiler)
T2 sequence (Q8TF76 1-798): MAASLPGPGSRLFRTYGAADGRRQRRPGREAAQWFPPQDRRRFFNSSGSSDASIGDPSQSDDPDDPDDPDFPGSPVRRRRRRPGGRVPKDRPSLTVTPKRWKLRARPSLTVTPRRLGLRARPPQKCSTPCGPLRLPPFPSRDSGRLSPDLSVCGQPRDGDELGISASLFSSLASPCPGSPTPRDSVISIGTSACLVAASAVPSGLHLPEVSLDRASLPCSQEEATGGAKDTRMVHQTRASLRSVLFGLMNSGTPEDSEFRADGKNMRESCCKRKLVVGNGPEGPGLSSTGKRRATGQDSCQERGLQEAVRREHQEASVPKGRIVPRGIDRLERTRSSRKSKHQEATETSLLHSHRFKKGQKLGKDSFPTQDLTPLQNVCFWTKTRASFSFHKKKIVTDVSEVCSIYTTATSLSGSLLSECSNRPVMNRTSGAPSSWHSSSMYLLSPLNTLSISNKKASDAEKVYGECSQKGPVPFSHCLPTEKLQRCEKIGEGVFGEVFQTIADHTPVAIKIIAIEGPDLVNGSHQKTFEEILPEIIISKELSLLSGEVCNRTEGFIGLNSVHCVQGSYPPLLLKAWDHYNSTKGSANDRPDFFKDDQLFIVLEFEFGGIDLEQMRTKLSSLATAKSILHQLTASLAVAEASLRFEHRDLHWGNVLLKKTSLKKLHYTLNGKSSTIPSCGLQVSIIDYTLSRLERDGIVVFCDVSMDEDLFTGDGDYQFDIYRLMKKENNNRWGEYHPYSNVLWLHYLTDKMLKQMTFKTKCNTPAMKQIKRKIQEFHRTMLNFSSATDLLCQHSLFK

NUAK2(h) = molecular target: T3, NUAK2(h) (Homo sapiens, UniProt Q9H093)
T3 construct: purchased Eurofins (KinaseProfiler)
T3 sequence (Q9H093 1-628): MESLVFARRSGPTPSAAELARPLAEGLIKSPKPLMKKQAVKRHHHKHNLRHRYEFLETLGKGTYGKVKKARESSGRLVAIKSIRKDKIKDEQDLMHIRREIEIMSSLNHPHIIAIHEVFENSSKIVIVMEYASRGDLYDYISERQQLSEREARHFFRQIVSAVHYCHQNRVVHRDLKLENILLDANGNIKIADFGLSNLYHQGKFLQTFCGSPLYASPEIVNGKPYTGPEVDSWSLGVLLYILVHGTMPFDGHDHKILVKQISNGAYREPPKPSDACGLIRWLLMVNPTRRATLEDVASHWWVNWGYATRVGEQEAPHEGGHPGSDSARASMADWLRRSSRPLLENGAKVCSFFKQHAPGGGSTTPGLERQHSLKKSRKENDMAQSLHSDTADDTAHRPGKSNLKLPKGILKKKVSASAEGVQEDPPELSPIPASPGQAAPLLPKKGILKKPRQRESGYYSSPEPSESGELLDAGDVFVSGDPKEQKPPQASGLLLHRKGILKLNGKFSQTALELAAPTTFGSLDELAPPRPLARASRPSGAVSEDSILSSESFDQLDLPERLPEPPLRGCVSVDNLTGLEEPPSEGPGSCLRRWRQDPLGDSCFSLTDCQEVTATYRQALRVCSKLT

PAK2(h) = molecular target: T4, PAK2(h) (Homo sapiens, UniProt Q13177)
T4 construct: purchased Eurofins (KinaseProfiler)

PDGFRα(h) = molecular target: T5, PDGFRα(h) (Homo sapiens, UniProt P16234)
T5 construct: purchased Eurofins (KinaseProfiler)

PKBβ(h) = molecular target: T6, PKBβ(h) (Homo sapiens, UniProt P31751)
T6 construct: purchased Eurofins (KinaseProfiler)

TLK2(h) = molecular target: T7, TLK2(h) (Homo sapiens, UniProt Q86UE8)
T7 construct: purchased Eurofins (KinaseProfiler)

TTBK2(h) = molecular target: T8, TTBK2(h) (Homo sapiens, UniProt Q6IQ55)
T8 construct: purchased Eurofins (KinaseProfiler)

mTOR(h) = molecular target: T9, mTOR(h) (Homo sapiens, UniProt P42345)
T9 construct: purchased Eurofins (KinaseProfiler)

T8 sequence (Q6IQ55 whole entry): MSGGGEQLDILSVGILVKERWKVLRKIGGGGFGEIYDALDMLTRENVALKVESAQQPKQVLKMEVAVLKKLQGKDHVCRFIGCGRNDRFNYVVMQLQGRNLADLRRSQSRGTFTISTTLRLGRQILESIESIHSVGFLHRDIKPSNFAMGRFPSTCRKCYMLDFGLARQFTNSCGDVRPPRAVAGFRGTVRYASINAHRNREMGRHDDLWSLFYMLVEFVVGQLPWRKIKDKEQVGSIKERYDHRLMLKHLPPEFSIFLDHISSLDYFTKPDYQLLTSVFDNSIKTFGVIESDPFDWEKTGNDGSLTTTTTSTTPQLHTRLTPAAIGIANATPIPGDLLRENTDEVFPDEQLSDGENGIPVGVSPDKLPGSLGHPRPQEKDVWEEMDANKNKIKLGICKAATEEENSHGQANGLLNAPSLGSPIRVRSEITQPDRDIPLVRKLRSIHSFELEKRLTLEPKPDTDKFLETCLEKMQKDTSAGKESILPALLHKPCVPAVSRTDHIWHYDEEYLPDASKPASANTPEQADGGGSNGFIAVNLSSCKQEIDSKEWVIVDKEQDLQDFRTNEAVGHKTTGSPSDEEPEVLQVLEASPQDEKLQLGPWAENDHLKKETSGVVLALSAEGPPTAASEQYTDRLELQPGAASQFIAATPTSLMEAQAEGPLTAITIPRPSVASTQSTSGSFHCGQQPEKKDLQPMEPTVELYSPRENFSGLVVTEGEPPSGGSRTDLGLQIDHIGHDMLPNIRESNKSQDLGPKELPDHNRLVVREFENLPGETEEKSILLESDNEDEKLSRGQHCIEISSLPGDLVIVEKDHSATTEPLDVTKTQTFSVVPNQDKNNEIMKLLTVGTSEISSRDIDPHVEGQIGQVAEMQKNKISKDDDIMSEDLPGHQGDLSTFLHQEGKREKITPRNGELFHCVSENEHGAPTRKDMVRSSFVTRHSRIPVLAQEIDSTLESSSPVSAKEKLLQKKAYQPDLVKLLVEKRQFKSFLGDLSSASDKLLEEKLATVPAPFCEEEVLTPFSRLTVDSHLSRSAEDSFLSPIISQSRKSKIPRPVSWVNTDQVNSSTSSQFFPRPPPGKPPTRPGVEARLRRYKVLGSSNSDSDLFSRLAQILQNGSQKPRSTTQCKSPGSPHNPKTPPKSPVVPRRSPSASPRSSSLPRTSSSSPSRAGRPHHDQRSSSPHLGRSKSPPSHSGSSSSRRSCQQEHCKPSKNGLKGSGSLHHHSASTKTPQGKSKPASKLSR
T5 sequence (P16234 24-1089): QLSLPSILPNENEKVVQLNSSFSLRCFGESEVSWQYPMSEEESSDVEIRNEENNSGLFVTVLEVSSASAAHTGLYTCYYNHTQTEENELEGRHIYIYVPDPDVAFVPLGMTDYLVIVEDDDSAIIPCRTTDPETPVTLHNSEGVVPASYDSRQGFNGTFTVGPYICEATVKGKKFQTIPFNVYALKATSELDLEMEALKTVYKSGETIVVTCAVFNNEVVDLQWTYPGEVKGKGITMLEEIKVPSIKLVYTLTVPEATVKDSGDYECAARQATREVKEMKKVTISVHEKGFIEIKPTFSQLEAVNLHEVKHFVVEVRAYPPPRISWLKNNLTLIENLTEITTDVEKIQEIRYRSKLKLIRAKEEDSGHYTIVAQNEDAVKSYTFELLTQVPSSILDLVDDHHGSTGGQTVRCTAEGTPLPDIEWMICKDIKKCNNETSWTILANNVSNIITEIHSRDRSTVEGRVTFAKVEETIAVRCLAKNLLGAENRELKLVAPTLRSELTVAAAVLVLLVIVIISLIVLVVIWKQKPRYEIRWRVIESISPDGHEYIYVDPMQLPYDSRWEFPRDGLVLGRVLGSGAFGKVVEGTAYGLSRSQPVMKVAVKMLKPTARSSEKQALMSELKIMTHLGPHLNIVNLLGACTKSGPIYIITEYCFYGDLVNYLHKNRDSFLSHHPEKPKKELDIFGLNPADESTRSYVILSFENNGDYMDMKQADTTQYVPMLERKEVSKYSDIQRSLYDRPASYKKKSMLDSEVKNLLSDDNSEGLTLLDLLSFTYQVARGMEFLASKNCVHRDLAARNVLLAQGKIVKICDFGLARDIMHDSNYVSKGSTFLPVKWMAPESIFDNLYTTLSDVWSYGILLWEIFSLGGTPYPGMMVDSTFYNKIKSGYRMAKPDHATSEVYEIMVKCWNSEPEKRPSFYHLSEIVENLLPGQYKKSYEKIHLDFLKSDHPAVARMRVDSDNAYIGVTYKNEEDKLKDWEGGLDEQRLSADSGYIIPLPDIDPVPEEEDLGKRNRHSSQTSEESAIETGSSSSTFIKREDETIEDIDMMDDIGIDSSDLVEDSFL
T4 sequence (Q13177 whole entry): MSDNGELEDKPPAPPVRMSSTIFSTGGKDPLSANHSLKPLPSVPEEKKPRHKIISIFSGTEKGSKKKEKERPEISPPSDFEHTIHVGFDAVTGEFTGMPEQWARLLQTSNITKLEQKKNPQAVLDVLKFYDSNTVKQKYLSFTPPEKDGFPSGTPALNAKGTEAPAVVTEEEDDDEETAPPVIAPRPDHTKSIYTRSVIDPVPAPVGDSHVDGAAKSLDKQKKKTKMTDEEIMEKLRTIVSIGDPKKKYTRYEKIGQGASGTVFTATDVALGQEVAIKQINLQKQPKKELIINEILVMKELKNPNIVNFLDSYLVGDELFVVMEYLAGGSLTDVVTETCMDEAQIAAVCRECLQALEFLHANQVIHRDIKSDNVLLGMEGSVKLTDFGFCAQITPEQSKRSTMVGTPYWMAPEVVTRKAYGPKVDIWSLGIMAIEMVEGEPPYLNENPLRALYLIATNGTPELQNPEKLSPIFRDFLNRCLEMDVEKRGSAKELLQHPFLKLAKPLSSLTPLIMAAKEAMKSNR
T6 sequence (P31751 whole entry): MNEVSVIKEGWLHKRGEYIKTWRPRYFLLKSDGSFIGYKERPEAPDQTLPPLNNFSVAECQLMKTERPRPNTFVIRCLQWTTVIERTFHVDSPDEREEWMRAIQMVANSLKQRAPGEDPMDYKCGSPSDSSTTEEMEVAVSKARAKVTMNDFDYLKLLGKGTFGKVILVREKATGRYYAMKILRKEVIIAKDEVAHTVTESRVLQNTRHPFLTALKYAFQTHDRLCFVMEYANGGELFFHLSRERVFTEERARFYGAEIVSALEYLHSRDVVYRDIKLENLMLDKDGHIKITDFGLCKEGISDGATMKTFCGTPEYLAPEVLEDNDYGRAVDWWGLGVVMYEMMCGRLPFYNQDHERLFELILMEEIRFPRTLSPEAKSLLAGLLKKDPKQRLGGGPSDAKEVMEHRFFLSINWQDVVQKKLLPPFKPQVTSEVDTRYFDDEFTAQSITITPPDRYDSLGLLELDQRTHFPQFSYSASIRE
T7 sequence (Q86UE8 whole entry): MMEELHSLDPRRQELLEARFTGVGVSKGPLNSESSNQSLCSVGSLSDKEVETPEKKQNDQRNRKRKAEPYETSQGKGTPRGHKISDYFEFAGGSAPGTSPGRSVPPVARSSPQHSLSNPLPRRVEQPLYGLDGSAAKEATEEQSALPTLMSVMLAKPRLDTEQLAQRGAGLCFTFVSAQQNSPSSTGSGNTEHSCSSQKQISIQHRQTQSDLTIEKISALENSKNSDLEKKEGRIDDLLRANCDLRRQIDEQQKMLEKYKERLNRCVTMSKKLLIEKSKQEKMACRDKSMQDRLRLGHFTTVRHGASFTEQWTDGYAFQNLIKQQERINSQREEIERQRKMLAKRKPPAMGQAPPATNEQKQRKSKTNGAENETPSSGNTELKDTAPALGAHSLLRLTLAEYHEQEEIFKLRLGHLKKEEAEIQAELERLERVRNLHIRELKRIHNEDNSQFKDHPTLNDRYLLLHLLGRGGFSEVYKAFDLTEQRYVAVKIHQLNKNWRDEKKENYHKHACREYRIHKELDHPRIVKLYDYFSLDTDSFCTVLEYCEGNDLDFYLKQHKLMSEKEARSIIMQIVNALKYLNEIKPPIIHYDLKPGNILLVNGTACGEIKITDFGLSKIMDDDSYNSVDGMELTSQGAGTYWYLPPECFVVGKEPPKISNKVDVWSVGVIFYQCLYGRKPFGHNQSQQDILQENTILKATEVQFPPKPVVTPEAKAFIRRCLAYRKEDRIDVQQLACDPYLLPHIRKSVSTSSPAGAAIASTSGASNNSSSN

For `COc1cc(OC)c(Cl)c(-c2ccc3c(NC(=O)c4ccc(N5CCNC(C)(C)C5)cc4)n[nH]c3n2)c1Cl` [3D185], the inhibition at 0.01 µM (DCAMKL3(h); 10 nM) was 5%, the inhibition at 0.1 µM (DCAMKL3(h); 100 nM) was 7% and the inhibition at 1 µM (DCAMKL3(h); 1000 nM) was 16%. It also gave an inhibition at 0.01 µM (Haspin(h); 10 nM) of -15%, an inhibition at 0.1 µM (Haspin(h); 100 nM) of -6% and an inhibition at 1 µM (Haspin(h); 1000 nM) of 4%. It also gave an inhibition at 0.01 µM (NUAK2(h); 10 nM) of -1%, an inhibition at 0.1 µM (NUAK2(h); 100 nM) of -1% and an inhibition at 1 µM (NUAK2(h); 1000 nM) of 0%. It also gave an inhibition at 0.01 µM (PAK2(h); 10 nM) of 5%, an inhibition at 0.1 µM (PAK2(h); 100 nM) of -5% and an inhibition at 1 µM (PAK2(h); 1000 nM) of -5%. For the same compound, the inhibition at 0.01 µM (PDGFRα(h); 10 nM) was 9%, the inhibition at 0.1 µM (PDGFRα(h); 100 nM) was 6% and the inhibition at 1 µM (PDGFRα(h); 1000 nM) was 10%. For the same compound, the inhibition at 0.01 µM (PKBβ(h); 10 nM) was 15%, the inhibition at 0.1 µM (PKBβ(h); 100 nM) was 29% and the inhibition at 1 µM (PKBβ(h); 1000 nM) was 30%. It also gave an inhibition at 0.01 µM (TLK2(h); 10 nM) of 0%, an inhibition at 0.1 µM (TLK2(h); 100 nM) of -1% and an inhibition at 1 µM (TLK2(h); 1000 nM) of -1%. The inhibition at 0.01 µM (TTBK2(h); 10 nM) was -4%, the inhibition at 0.1 µM (TTBK2(h); 100 nM) was -11% and the inhibition at 1 µM (TTBK2(h); 1000 nM) was -9%. For the same compound, the inhibition at 0.01 µM (mTOR(h); 10 nM) was -2%, the inhibition at 0.1 µM (mTOR(h); 100 nM) was -2% and the inhibition at 1 µM (mTOR(h); 1000 nM) was 4%.
